Data published in patent publication US4599310A, “Process for producing antitumor antibiotic compound” (priority 1985, dated 1986).
Converted amounts (≈) assume the structure as drawn. Bridge positions count the residues as written; N and C are the ends. Square brackets hold non-standard residues; d marks the D form. Peptide text beside a SMILES is read from it. I, II: the chains in the order shown. * marks the point of attachment. Quinaldoyl(3-OH) = O=C(c1nc2ccccc2cc1O)*; NMeV = CN[CH](C(=O)O)C(C)C; Pip = O=C(O)[CH]1CCCCN1; Sar = CNCC(=O)O

Columns and labels:
[1] = tested on: S. aureus 209P-A9497; assay: Antibacterial activity, serial two-fold agar dilution method; assay type: cell-based; details: Staphylococcus aureus, read-out: Minimum Inhibitory Concentration (MIC)
Method: (§1) The antibacterial activities of sandramycin were determined by a serial two-fold agar dilution method. The results are shown in Table 5 in comparison with the activities of luzopeptin A and echinomycin.

[2] = tested on: P-388 leukemia; assay: Transplantable mouse tumor P-388 leukemia; assay type: in vivo, mouse (CDF1 female mice); details: for MST (median survival time): control MST 9.0 days
Method: The methodology used generally followed the protocols of the National Cancer Institute [Cancer Chemotherapy Rep. Part 3, 3, 1-103 (1972)]. The essential experimental details are given at the bottom of Table 6. Two different dose regimens were tested: single dose on day 1 and daily for 5 days. With both schedules, the optimum dose appears to be about 0.2 mg/kg/injection.
Tumor inoculum: 10^6 ascites cells implanted i.p.
Evaluation: MST = median survival time
Effect: % T/C ≥ (MST treated/MST control) × 100
Criteria: % T/C = 125 considered significant antitumor activity
AWC: average weight change (treatedcontrol) in grams (on day 4)

[3] = tested on: gram-positive organisms such as Bacillus subtilis and Staphylococcus aureus as well as Streptococcus faecalis; assay: Antibacterial activity, serial two-fold agar dilution method (statement in words); assay type: cell-based
Method: as §1

CC(C)C1C(=O)OCC(NC(=O)c2nc3ccccc3cc2O)C(=O)N2CCCCC2C(=O)NCC(=O)N(C)CC(=O)N(C)C(C(C)C)C(=O)OCC(NC(=O)c2nc3ccccc3cc2O)C(=O)N2CCCCC2C(=O)NCC(=O)N(C)CC(=O)N1C (stereo not drawn) [Sandramycin] (I: {Quinaldoyl(3-OH)}-S[Pip]G[Sar][NMeV] / II: {Quinaldoyl(3-OH)}-S[Pip]G[Sar][NMeV]; ester I:1-II:C, I:C-II:1; configuration not given here) was tested. Which MIC [1] did it give?
Its MIC is 0.012 µg/mL (≈ 0.00983 µM).

And the optimum dose ([2]; both schedules: single dose on day 1 and daily for 5 days, IP)?
The optimum dose was “about 0.2 mg/kg/injection”.

What about the “AWC (average weight change) Day 4” value ([2]; d. 1, IP, 0.025 mg/kg/inj.) of the same molecule?
The value was -0.2 gm.

And the “MST (median survival time)” value ([2]; d. 1, IP, 0.025 mg/kg/inj.)?
Its value is 9.5 days.

And the “AWC (average weight change) Day 4” value ([2]; d. 1, IP, 0.05 mg/kg/inj.)?
Its value is -0.6 gm.

What about the “MST (median survival time)” value ([2]; d. 1, IP, 0.05 mg/kg/inj.) of the same molecule?
Its value is 10.0 days.

What about the “AWC (average weight change) Day 4” value ([2]; d. 1, IP, 0.1 mg/kg/inj.) of the same molecule?
Its value is -0.9 gm.

And the “MST (median survival time)” value ([2]; d. 1, IP, 0.1 mg/kg/inj.)?
Its value is 11.0 days.

What about the “AWC (average weight change) Day 4” value ([2]; d. 1, IP, 0.2 mg/kg/inj.) of the same molecule?
Its value is -1.4 gm.

And the “AWC (average weight change) Day 4” value ([2]; d. 1, IP, 0.4 mg/kg/inj.)?
The value was -0.7 gm.

What about the “MST (median survival time)” value ([2]; d. 1, IP, 0.4 mg/kg/inj.) of the same molecule?
The value was 11.0 days.

What about the “AWC (average weight change) Day 4” value ([2]; d. 1, IP, 0.8 mg/kg/inj.) of the same molecule?
The value was -1.6 gm.

What about the “MST (median survival time)” value ([2]; d. 1, IP, 0.8 mg/kg/inj.) of the same molecule?
Its value is 10.0 days.

And the “AWC (average weight change) Day 4” value ([2]; d. 1, IP, 1.6 mg/kg/inj.)?
Its value is -1.3 gm.

And the “AWC (average weight change) Day 4” value ([2]; d. 1, IP, 3.2 mg/kg/inj.)?
The value was -2.8 gm.

And the “MST (median survival time)” value ([2]; d. 1, IP, 3.2 mg/kg/inj.)?
The value was “Toxic”.

What about the “AWC (average weight change) Day 4” value ([2]; d. 1→5, IP, 0.0125 mg/kg/inj.) of the same molecule?
The value was -0.9 gm.

And the “Survivors Day 5” value ([2]; d. 1→5, IP, 0.0125 mg/kg/inj.)?
Its value is 6/6.

What about the “AWC (average weight change) Day 4” value ([2]; d. 1→5, IP, 0.025 mg/kg/inj.) of the same molecule?
The value was -1.4 gm.

And the “MST (median survival time)” value ([2]; d. 1→5, IP, 0.025 mg/kg/inj.)?
Its value is 10.0 days.

What about the “AWC (average weight change) Day 4” value ([2]; d. 1→5, IP, 0.05 mg/kg/inj.) of the same molecule?
Its value is -1.8 gm.

What about the “MST (median survival time)” value ([2]; d. 1→5, IP, 0.05 mg/kg/inj.) of the same molecule?
The value was 8.5 days.

What about the “AWC (average weight change) Day 4” value ([2]; d. 1→5, IP, 0.1 mg/kg/inj.) of the same molecule?
Its value is -0.8 gm.

And the “AWC (average weight change) Day 4” value ([2]; d. 1→5, IP, 0.2 mg/kg/inj.)?
The value was -1.7 gm.

And the “MST (median survival time)” value ([2]; d. 1→5, IP, 0.2 mg/kg/inj.)?
Its value is 12.0 days.

And the “AWC (average weight change) Day 4” value ([2]; d. 1→5, IP, 0.4 mg/kg/inj.)?
Its value is -1.3 gm.

What about the “MST (median survival time)” value ([2]; d. 1→5, IP, 0.4 mg/kg/inj.) of the same molecule?
The value was 11.0 days.

What about the “AWC (average weight change) Day 4” value ([2]; d. 1→5, IP, 0.8 mg/kg/inj.) of the same molecule?
Its value is -1.4 gm.

And the “MST (median survival time)” value ([2]; d. 1→5, IP, 0.8 mg/kg/inj.)?
The value was 6.0 days.

What about the “AWC (average weight change) Day 4” value ([2]; d. 1→5, IP, 1.6 mg/kg/inj.) of the same molecule?
The value was -1.7 gm.

What about the “MST (median survival time)” value ([2]; d. 1→5, IP, 1.6 mg/kg/inj.) of the same molecule?
Its value is “Toxic”.

And the antibacterial activity [3]?
The antibacterial activity was “strongly inhibitory”.

Which MIC [1] does the source give for CS[C@H]1SC[C@H]2C(=O)N(C)[C@@H](C(C)C)C(=O)OC[C@@H](NC(=O)c3cnc4ccccc4n3)C(=O)N[C@@H](C)C(=O)N(C)[C@@H]1C(=O)N(C)[C@@H](C(C)C)C(=O)OC[C@@H](NC(=O)c1cnc3ccccc3n1)C(=O)N[C@@H](C)C(=O)N2C [Echinomycin, reference compound] here?
Its MIC is 0.012 µg/mL (≈ 0.0109 µM).
